Assay results taken from PubChem BioAssay (NCI).
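Protocol summary: plate cells (96-well), add compound at 5 concentrations, incubate 48 h, interpolate endpoints linearly. TGI is the concentration that stops growth completely.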

test system: OVCAR-4 ovarian; assay: NCI anticancer screen, dose series, 48 h

`Cc1nc(C)c(N2CCN([N+](=O)[O-])CC2)c(=O)[nH]1` and `Cc1c(O)nc(-n2[nH]c3c(c2=O)CCCC3)[nH]c1=O` cannot be ordered by TGI: > 100 µM for the first, > 100 µM for the second.

`Cc1nn(-c2ccccc2)c2c1C(c1cc3ccccc3nc1Cl)NC(=O)N2` (stereo not drawn) and `Cc1cc(/N=C/c2ccc(N(C)C)cc2)n(-c2ccccc2)n1` cannot be ordered by TGI: > 100 µM for the first, > 100 µM for the second.

`COc1ccc(C2OC(c3ccncc3)=NN2C)cc1F` (stereo not drawn) and `NCCCN1c2ccccc2Sc2ccc(Cl)cc21` cannot be ordered by TGI: > 100 µM for the first, > 10 µM for the second.

Going from `O=C(/C=C/c1ccccc1)Oc1ccc(C(=O)/C=C/c2ccccc2)cc1` to `O=C(NCP(=O)(Oc1ccccc1)Oc1ccccc1)OCc1ccccc1`, the TGI rises from 55.5 µM to > 100 µM.

`COC(=O)C(Cc1ccc2c(c1)CCC2)Cc1ccc2c(c1)CCC2` and `CSC1=N/C(=C\c2ccc(C)cc2)C(=O)N1CN1CCCCC1` cannot be ordered by TGI: > 100 µM for the first, > 100 µM for the second.

`C/C(C[n+]1ccccc1)=N\N=C(N)N` and `CCOC(=O)c1cccc(N=Nc2nc[nH]c2/C=C/C(=O)OC)c1` cannot be ordered by TGI: > 100 µM for the first, > 100 µM for the second.

`O=C(O)CN1CCN2CCCCCN(CC1)CCN(CC(=O)O)CC2` and `O=C(O)CN1CCNCCN(CC(=O)O)CCN(CC(=O)O)CCNCC1` cannot be ordered by TGI: > 100 µM for the first, > 100 µM for the second.

`Clc1ccc(-c2nnc3sc4nc5ccccc5c-4nn23)c(Cl)c1` and `Nc1ccc(N=Nc2c(S(=O)(=O)O)cc3ccccc3c2S(=O)(=O)O)cc1` cannot be ordered by TGI: > 100 µM for the first, > 100 µM for the second.

Going from `N#CC(C#N)=C1SC(=Nc2ccccc2)C(=Nc2ccccc2)N1c1ccccc1` to `C=CCc1cc(-c2nc(=S)[nH][nH]2)ccc1N=NNc1ccc(C(=O)O)cc1`, the TGI rises from 34.8 µM to > 100 µM.

With `COC(C)(C)C1(O)CC[C@@H](C)CC1=O` (stereo partly drawn) the TGI was > 100 µM.

test system: NCI-H522 lung; assay: NCI anticancer screen, dose series, 48 h

Compared with `CC1=CCC([C@@](C)(O)CCCC(C)(C)N=C=S)CC1` (stereo partly drawn), `COC(C)(C)C1(O)CC[C@@H](C)CC1=O` (stereo partly drawn) is higher in TGI: 33.8 µM for the first, > 100 µM for the second.

Compared with `C=C1C(=O)CC2C1CC(=O)/C(C)=C/CCC(C)(O)C2O` (stereo not drawn), `Cc1c(O)nc(-n2[nH]c3c(c2=O)CCCC3)[nH]c1=O` is higher in TGI: 3.04 µM for the first, > 100 µM for the second.

`C[C@H](CCC(=O)O)[C@H]1CC[C@H]2[C@@H]3C(=O)C[C@@H]4C[C@H](O)CC[C@]4(C)[C@H]3C[C@H](O)[C@]12C` and `O=C(O)CN1CCN2CCCCCN(CC1)CCN(CC(=O)O)CC2` cannot be ordered by TGI: > 100 µM for the first, > 100 µM for the second.

`O=C(O)c1ccccc1CC(Cc1ccc2c(c1)CCC2)C(=O)O` (stereo not drawn) and `COC(=O)C(Cc1ccc2c(c1)CCC2)Cc1ccc2c(c1)CCC2` cannot be ordered by TGI: > 100 µM for the first, > 100 µM for the second.

`Cn1c(SCc2ccc(F)cc2)nnc1C12CC3CC(CC(C3)C1)C2` and `CSC1=N/C(=C\c2ccc(C)cc2)C(=O)N1CN1CCCCC1` cannot be ordered by TGI: > 100 µM for the first, > 100 µM for the second.

First: COC(=O)/C=C\C(C#N)(C#N)N=Cc1ccc(C)cc1
Second: CCOC(=O)c1cccc(N=Nc2nc[nH]c2/C=C/C(=O)OC)c1
The TGI of the first is lower: 1.64 µM for the first, > 100 µM for the second.

`CC(c1ccccc1)N1CCN(C(C)c2ccccc2)CC1` (stereo not drawn) and `O=C1OC(C2Cc3ccc4ccccc4c3C2=O)c2ccccc21` (stereo not drawn) cannot be ordered by TGI: > 100 µM for the first, > 100 µM for the second.

Going from `COc1ccc(N2C(=O)CC(=O)N(NC(=O)C(C)Oc3ccccc3C)C2=S)cc1` (stereo not drawn) to `O=C1c2cc(-c3ccccc3)cnc2S(=O)(=O)N1c1ccc(Br)cc1`, the TGI falls from > 100 µM to 54.6 µM.

Going from `C/C(=N\N=C1/C(=O)OC(c2ccccc2)=C1C(=O)c1ccccc1)c1ccc([N+](=O)[O-])cc1` to `O=C(/C=C/c1ccccc1)Oc1ccc(C(=O)/C=C/c2ccccc2)cc1`, the TGI falls from 83.5 µM to 23.6 µM (3.5-fold).

`O=S(=O)(O)C(CO)c1ccccc1` (stereo not drawn) (tested in a mixture with another compound) and `Nc1ccc(N=Nc2c(S(=O)(=O)O)cc3ccccc3c2S(=O)(=O)O)cc1` cannot be ordered by TGI: > 100 µM for the first, > 100 µM for the second.

`O=C1c2ccccc2C(=O)N1n1c(Cc2ccc([N+](=O)[O-])cc2)n[nH]c1=O` and `Clc1ccc(-c2nnc3sc4nc5ccccc5c-4nn23)c(Cl)c1` cannot be ordered by TGI: > 100 µM for the first, > 100 µM for the second.

`Cc1nc(C)c(N2CCN([N+](=O)[O-])CC2)c(=O)[nH]1` and `O=C(O)CN1CCNCCN(CC(=O)O)CCN(CC(=O)O)CCNCC1` cannot be ordered by TGI: > 100 µM for the first, > 100 µM for the second.

Going from `Cc1nn(-c2ccccc2)c2c1C(c1cc3ccccc3nc1Cl)NC(=O)N2` (stereo not drawn) to `Cc1cc(/N=C/c2ccc(N(C)C)cc2)n(-c2ccccc2)n1`, the TGI rises from 35.4 µM to > 100 µM.

`COc1ccc(C2OC(c3ccncc3)=NN2C)cc1F` (stereo not drawn) and `NCCCN1c2ccccc2Sc2ccc(Cl)cc21` cannot be ordered by TGI: > 100 µM for the first, > 5.15 µM for the second.

`C/C(C[n+]1ccccc1)=N\N=C(N)N` and `C=CCc1cc(-c2nc(=S)[nH][nH]2)ccc1N=NNc1ccc(C(=O)O)cc1` cannot be ordered by TGI: > 100 µM for the first, > 100 µM for the second.

`C=C(C(=O)OCC)C(=O)OCC` and `O=C(NCP(=O)(Oc1ccccc1)Oc1ccccc1)OCc1ccccc1` cannot be ordered by TGI: > 100 µM for the first, > 100 µM for the second.

`N#CC(C#N)=C1SC(=Nc2ccccc2)C(=Nc2ccccc2)N1c1ccccc1` was tested, and the TGI was 4.08 µM.

test system: HOP-92 NSCLC; assay: NCI anticancer screen, dose series, 48 h

Going from `CC1=CCC([C@@](C)(O)CCCC(C)(C)N=C=S)CC1` (stereo partly drawn) to `C=C1C(=O)CC2C1CC(=O)/C(C)=C/CCC(C)(O)C2O` (stereo not drawn), the TGI falls from 33.1 µM to 15.8 µM (2.1-fold).

`C[C@H](CCC(=O)O)[C@H]1CC[C@H]2[C@@H]3C(=O)C[C@@H]4C[C@H](O)CC[C@]4(C)[C@H]3C[C@H](O)[C@]12C` and `O=C(O)CN1CCN2CCCCCN(CC1)CCN(CC(=O)O)CC2` cannot be ordered by TGI: > 100 µM for the first, > 100 µM for the second.

`O=C(O)c1ccccc1CC(Cc1ccc2c(c1)CCC2)C(=O)O` (stereo not drawn) and `COC(=O)C(Cc1ccc2c(c1)CCC2)Cc1ccc2c(c1)CCC2` cannot be ordered by TGI: > 100 µM for the first, > 100 µM for the second.

Going from `Cn1c(SCc2ccc(F)cc2)nnc1C12CC3CC(CC(C3)C1)C2` to `CSC1=N/C(=C\c2ccc(C)cc2)C(=O)N1CN1CCCCC1`, the TGI rises from 77.1 µM to > 100 µM.

Compared with `COC(=O)/C=C\C(C#N)(C#N)N=Cc1ccc(C)cc1`, `CCOC(=O)c1cccc(N=Nc2nc[nH]c2/C=C/C(=O)OC)c1` is higher in TGI: 3.6 µM for the first, > 100 µM for the second.

`CC(c1ccccc1)N1CCN(C(C)c2ccccc2)CC1` (stereo not drawn) and `O=C1OC(C2Cc3ccc4ccccc4c3C2=O)c2ccccc21` (stereo not drawn) cannot be ordered by TGI: > 100 µM for the first, > 100 µM for the second.

`COc1ccc(N2C(=O)CC(=O)N(NC(=O)C(C)Oc3ccccc3C)C2=S)cc1` (stereo not drawn) and `O=C1c2ccccc2C(=O)N1n1c(Cc2ccc([N+](=O)[O-])cc2)n[nH]c1=O` cannot be ordered by TGI: > 100 µM for the first, > 100 µM for the second.

Compared with `C/C(=N\N=C1/C(=O)OC(c2ccccc2)=C1C(=O)c1ccccc1)c1ccc([N+](=O)[O-])cc1`, `O=C(/C=C/c1ccccc1)Oc1ccc(C(=O)/C=C/c2ccccc2)cc1` is 2.1-fold lower in TGI: 83.3 µM for the first, 39 µM for the second.

`O=S(=O)(O)C(CO)c1ccccc1` (stereo not drawn) (tested in a mixture with another compound) and `C/C(C[n+]1ccccc1)=N\N=C(N)N` cannot be ordered by TGI: > 100 µM for the first, > 100 µM for the second.

Compared with `Cc1nc(C)c(N2CCN([N+](=O)[O-])CC2)c(=O)[nH]1`, `Cc1nn(-c2ccccc2)c2c1C(c1cc3ccccc3nc1Cl)NC(=O)N2` (stereo not drawn) is lower in TGI: > 100 µM for the first, 32.1 µM for the second.

`COc1ccc(C2OC(c3ccncc3)=NN2C)cc1F` (stereo not drawn) and `NCCCN1c2ccccc2Sc2ccc(Cl)cc21` cannot be ordered by TGI: > 100 µM for the first, > 10 µM for the second.

Compared with `Cc1cc(/N=C/c2ccc(N(C)C)cc2)n(-c2ccccc2)n1`, `N#CC(C#N)=C1SC(=Nc2ccccc2)C(=Nc2ccccc2)N1c1ccccc1` is lower in TGI: > 100 µM for the first, 15.6 µM for the second.

Going from `Clc1ccc(-c2nnc3sc4nc5ccccc5c-4nn23)c(Cl)c1` to `C=C(C(=O)OCC)C(=O)OCC`, the TGI rises from 68.8 µM to > 100 µM.
